# Source: the supplement of paper PMC10307832
# Experiments:
# Assay in all cases: relative viability (nuclei count vs DMSO), 5 days (fraction); higher = more cells survive
# Zosuquidar + Dasatinib = compound: O[C@@H](COc1cccc2ncccc12)CN1CCN([C@@H]2c3ccccc3[C@@H]3[C@H](c4ccccc42)C3(F)F)CC1 [Zosuquidar] + Cc1nc(Nc2ncc(C(=O)Nc3c(C)cccc3Cl)s2)cc(N2CCN(CCO)CC2)n1 [Dasatinib] (partner 0.075 µM)
# In short: (§1)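 Lung cancer cell lines in 1536-well plates were dosed by pin tool the day after seeding, either with one drug alone or with a fixed anchor-drug dose plus five library-drug doses (not always all listed) in √10 steps. After 5 days, cells were fixed and their nuclei stained in one step (final 0.05% Triton X-100, 1% formaldehyde, 1 ug/ml Hoechst), then counted on 4× images. Relative viability is the nuclei count in treated wells divided by that in vehicle wells. Values are medians of duplicate plates.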
# [1] = compound: COc1cc2nccc(Oc3ccc(NC(=O)C4(C(=O)Nc5ccc(F)cc5)CC4)cc3)c2cc1OC [Cabozantinib] + O=C(CCCCCCC(=O)Nc1ccccc1)NO [Vorinostat] (partner 1 µM)
# In short: as §1
# Kobe2602 + Navitoclax = compound: C1=CC(=CC=C1NC(=S)NNC2=C(C=C(C=C2[N+](=O)[O-])C(F)(F)F)[N+](=O)[O-])F [Kobe2602] + CC1(C)CCC(c2ccc(Cl)cc2)=C(CN2CCN(c3ccc(C(=O)NS(=O)(=O)c4ccc(N[C@H](CCN5CCOCC5)CSc5ccccc5)c(S(=O)(=O)C(F)(F)F)c4)cc3)CC2)C1 [Navitoclax] (partner 0.5 µM)
# In short: as §1
# Kobe2602 + Lapatinib = compound: C1=CC(=CC=C1NC(=S)NNC2=C(C=C(C=C2[N+](=O)[O-])C(F)(F)F)[N+](=O)[O-])F [Kobe2602] + CS(=O)(=O)CCNCc1ccc(-c2ccc3ncnc(Nc4ccc(OCc5cccc(F)c5)c(Cl)c4)c3c2)o1 [Lapatinib] (partner 2 µM)
# In short: as §1
Cell Line,relative viability (Zosuquidar + Dasatinib; first compound 0.01 µM),relative viability (Zosuquidar + Dasatinib; first compound 0.03162 µM),relative viability (Zosuquidar + Dasatinib; first compound 0.1 µM),relative viability (Zosuquidar + Dasatinib; first compound 0.3162 µM),relative viability (Zosuquidar + Dasatinib; first compound 1 µM),relative viability ([1]; first compound 0.02 µM),relative viability ([1]; first compound 0.06325 µM),relative viability ([1]; first compound 0.2 µM),relative viability ([1]; first compound 0.6325 µM),relative viability ([1]; first compound 2 µM),relative viability (Kobe2602 + Navitoclax; first compound 0.2 µM),relative viability (Kobe2602 + Navitoclax; first compound 0.6325 µM),relative viability (Kobe2602 + Navitoclax; first compound 2 µM),relative viability (Kobe2602 + Navitoclax; first compound 6.325 µM),relative viability (Kobe2602 + Navitoclax; first compound 20 µM),relative viability (Kobe2602 + Lapatinib; first compound 0.2 µM),relative viability (Kobe2602 + Lapatinib; first compound 0.6325 µM),relative viability (Kobe2602 + Lapatinib; first compound 2 µM),relative viability (Kobe2602 + Lapatinib; first compound 6.325 µM),relative viability (Kobe2602 + Lapatinib; first compound 20 µM)
NCI-H1651,0.357,0.324,0.463,0.356,0.381,0.511,0.709,0.533,0.571,0.622,1.11,1.08,1.18,1.03,1.02,0.871,0.981,0.836,0.775,0.764
NCI-H1666,0.785,0.818,0.869,0.9,0.761,1.09,1.1,1.02,1.04,0.95,1.02,0.982,–,0.77,0.924,0.639,0.659,–,0.468,0.592
NCI-H1734,0.41,0.408,0.455,0.571,0.531,0.703,1.01,0.847,0.886,0.792,0.899,0.924,0.842,0.837,0.926,1.06,1.11,1.14,1.26,1.03
NCI-H1755,0.401,0.383,0.375,0.451,0.415,0.765,0.792,0.83,0.739,0.705,0.999,0.995,0.969,0.96,0.926,1.01,1.03,0.951,1.02,1.09
NCI-H1793,0.375,0.3,–,0.489,0.488,0.652,1.12,–,0.744,0.759,0.528,0.445,0.415,0.413,0.459,1.03,0.663,0.621,0.623,0.78
NCI-H1915,0.311,0.305,0.308,0.337,0.283,0.525,0.548,0.511,0.522,0.473,0.796,0.827,0.797,0.791,0.795,0.998,1.04,0.969,1.02,1.03
NCI-H1944,0.206,0.159,0.187,0.244,0.229,0.615,0.617,0.527,0.582,0.637,1.02,1.04,1.09,1.08,1.13,0.878,0.944,0.837,0.857,0.787
NCI-H1975,0.335,0.313,0.433,0.374,0.352,0.754,0.833,0.773,0.728,0.651,1.08,0.955,0.968,1.1,0.928,0.886,0.956,0.767,0.756,0.852
NCI-H1993,0.66,0.507,0.501,0.564,0.654,0.553,0.723,0.63,0.64,0.831,0.678,0.707,0.787,0.687,0.729,0.718,0.727,0.783,0.814,0.875
NCI-H2009,0.281,0.174,0.244,0.331,0.284,0.701,0.855,0.744,0.809,0.748,1.19,1.25,1.14,1.19,1.14,0.878,1.14,0.895,1.04,0.871
NCI-H2023,0.46,0.436,0.557,0.532,0.674,0.608,0.623,0.599,0.648,0.594,0.976,1.11,0.892,0.927,0.917,0.833,0.914,0.811,0.815,0.739
NCI-H2085,0.247,0.234,0.19,0.243,0.228,0.851,0.92,0.725,0.797,0.74,1.2,1.16,1.08,1.23,1.14,0.749,0.751,0.779,0.776,0.879
NCI-H2087,0.773,–,0.668,0.91,0.919,0.752,0.781,0.563,0.49,0.715,0.959,0.934,1.01,1.03,0.849,0.879,1.01,1.26,0.957,1.04
NCI-H2126,0.581,0.599,–,0.639,0.61,0.471,0.773,0.777,0.784,0.798,0.883,0.888,0.799,0.776,0.788,0.751,0.775,0.778,0.725,0.759
NCI-H2170,0.464,0.661,0.636,0.767,0.58,0.818,0.821,0.704,0.847,0.914,0.65,0.597,0.56,0.57,0.622,0.282,0.261,0.262,0.272,0.303
NCI-H2228,0.507,0.573,0.612,0.621,0.551,0.732,1.05,0.763,0.74,0.707,1.08,0.621,0.69,0.743,0.841,1.08,1.02,0.985,1.12,1.75
NCI-H2347,0.321,0.384,0.253,0.309,0.351,0.525,0.525,0.627,0.469,0.391,0.697,0.82,0.753,0.789,0.807,0.939,0.963,0.913,0.988,0.909
NCI-H2405,0.208,0.174,0.208,0.228,0.215,0.846,1.25,1.01,0.986,1.07,0.82,0.847,0.783,1.06,0.987,1.05,1.17,1.01,1.2,1.33
NCI-H3122,0.666,0.653,0.787,0.863,0.914,0.992,1,1.07,1.11,1.02,1.05,0.971,1.02,1.02,1.03,1.04,0.981,1,1.03,1.06
PC-3 [JPC-3],1,1.02,0.941,0.927,0.964,0.694,1.1,–,0.816,1.02,0.833,0.775,0.76,0.847,0.717,0.488,0.457,0.434,0.477,0.495
PC-14,0.271,0.223,0.341,0.303,0.284,0.691,0.956,–,0.692,0.748,0.978,1.04,0.982,1.03,0.971,0.31,0.426,0.294,0.333,0.306
RERF-LC-KJ,0.729,0.859,0.896,0.74,0.782,0.65,0.768,0.666,0.801,0.75,0.804,0.993,0.856,0.971,0.858,0.851,0.842,0.809,0.697,0.831
SK-LU-1,0.191,0.145,0.194,0.211,0.189,0.719,1.04,0.755,0.797,0.72,0.818,0.984,0.713,1.01,0.967,0.859,0.88,0.92,0.859,0.817
SK-MES-1,0.361,0.339,0.343,0.365,0.361,1.06,1.27,1.16,1.11,1.16,1.14,1.23,1.09,1.19,1.23,0.465,0.488,0.427,0.436,0.464
SW 1573,0.603,0.437,0.667,0.456,0.595,0.757,0.844,0.961,0.898,0.906,1.05,1.14,0.96,1.02,0.946,1.34,1.25,1.05,1.1,1.14
